Laboratory results: patent US20190203212A1, “INDUCIBLE DNA BINDING PROTEINS AND GENOME PERTURBATION TOOLS AND APPLICATIONS THEREOF” (Massachusetts Institute of Technology, priority 2013, published 2019)

Test system: Grm2
Assay: AAV-delivered TALE / LITE modulation of Grm2 mRNA in primary cortical neurons, qRT-PCR
Assay type: cell-based, mouse
Conditions: neurons expressing only one LITE component
Procedure: FIG. 18 depicts metabotropic glutamate receptor 2 (mGlur2) LITE activity in mouse cortical neuron culture. A mGluR2 targeting LITE was constructed via the plasmids pAAV-human Synapsin I promoter (hSyn)-HA-TALE(mGluR2)-CIB1 and pAAV-hSyn-CRY2PHR-VP64-2A-GFP. These fusion constructs were then packaged into adeno associated viral vectors (AAV). Additionally, AAV carrying hSyn-TALE-VP64-2A-GFP and GFP only were produced. Embryonic mouse (E16) cortical cultures were plated on Poly-L-lysine coated 24 well plates. After 5 days in vitro neural cultures were co-transduced with a mixture of TALE(mGluR2)-CIB1 and CRY2PHR-VP64 AAV stocks. Control samples were transduced with either TALE(mGluR2)-VP64 AAV or GFP AAV. 6 days after AAV transduction, experimental samples were stimulated using either of two light pulsing paradigms: 0.5 s per min and 0.25 sec per 30 sec. Neurons were stimulated for 24 h and harvested for qPCR analysis. All mGluR2 expression levels were normalized to the respective stimulated GFP control. […]
Light stimulation was started 6 days after AAV transduction (DIV 11) with an intensity of 5 mW/cm^2, duty cycle of 0.8% (250 ms pulses at 0.033 Hz or 500 ms pulses at 0.016 Hz), 466 nm blue light for 24 h unless indicated otherwise in figure legends. […] Relative mRNA levels were measured by quantitative real-time PCR (qRT-PCR) using TaqMan probes as described above for Neuro 2a cells. […]

CRY2PHR-VP64: LITE effector component alone
Grm2 mRNA versus GFP controls, single LITE component: did not significantly affect transcription
